Values after ≈ are worked out from the molar mass of the structure shown. Values joined by “and” are separate entries in the source; they are usually repeats but may differ in a detail not shown here. Identical values can stand only once. Like-named read-outs stand apart in the source and are kept apart here. Some results are limits rather than exact numbers.

Series [1] in a line: Kinetic aqueous solubility. In kind it is physicochemical. To be noted: phosphate buffer; kinetic solubility in PBS at pH 7.4 and 25 °C. How it is done: Twenty microliters of a 10 mM compound stock solution in DMSO was added to an Eppendorf tube containing 980 μL of phosphate buffer (10 mM, pH = 7.4). The samples were incubated in an Eppendorf Thermomixer (25 °C, 800 rpm) for 24 h. Afterward, the samples were centrifuged for 5 min at 11,000 rpm and the supernatant was filtered (0.2 μm PTFE membrane) before analysis by HPLC. Each compound was analyzed in duplicate. The solubility was calculated from the peak area relative to the reference samples (200 μM in MeOH/MilliQ H2O, 60/40, v/v).

In series [2] the target is T1, human FFA2-eYFP (Homo sapiens, UniProt O15552).
T1 construct: expressed in transfected cells; host or cells: membranes of Flp-In T-Rex 293 cells induced to express the construct
T1 sequence (O15552 1-330): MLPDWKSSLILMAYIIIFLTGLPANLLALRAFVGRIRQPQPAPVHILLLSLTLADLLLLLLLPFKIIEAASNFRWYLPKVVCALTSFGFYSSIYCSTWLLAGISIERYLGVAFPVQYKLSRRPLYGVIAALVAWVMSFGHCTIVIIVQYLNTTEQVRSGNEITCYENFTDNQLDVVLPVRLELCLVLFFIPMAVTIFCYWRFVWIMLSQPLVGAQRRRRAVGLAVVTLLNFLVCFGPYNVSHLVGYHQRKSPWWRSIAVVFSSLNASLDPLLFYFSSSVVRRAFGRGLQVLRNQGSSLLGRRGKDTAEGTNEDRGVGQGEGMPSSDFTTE
The series is described as follows: [35S]GTPγS incorporation assay, membranes of Flp-In T-Rex 293 cells. The note with it: for GTPγS pIC50: hFFA2, propionate at EC80, mean ± SEM, three or more experiments; for LLEGTPγS: pIC50, GTPγS – ClogP. Type of series: biochemical. The protocol:
(§1) The activity of the compounds on FFA2 was evaluated in two different functional antagonist assays, both using propionate at EC80 as the agonist. The GTPγS assay reflects receptor activation by directly assessing G protein recruitment, whereas the cAMP assay, performed in whole cells, reflects a physiologically relevant downstream second messenger.
Functional activity of the compounds were tested in a [^35S]GTPγS incorporation assay using membranes of Flp-In T-Rex 293 cells induced to express human FFA2-eYFP. […] The reaction was initiated by addition of [^35S]GTPγS (100 nCi per reaction) containing 1 μM GDP and incubated at 30 °C for 60 min. The reaction was terminated by rapid vacuum filtration through GF/C glass fiber filter-bottom 96-well microplates (PerkinElmer Life Sciences, Beaconsfield, UK) using a UniFilter FilterMate Harvester (PerkinElmer). Unbound radioligands were removed from filters by three washes with ice-cold PBS. MicroScint-20 (PerkinElmer) was added to dried filters, and [^35S]GTPγS binding was quantified by liquid scintillation spectroscopy.
On the technique in general: GTPγS resists hydrolysis and so accumulates on activated G proteins.

For series [3], the target named is T2, hFFA2 (Homo sapiens, UniProt O15552).
T2 construct: expressed in transfected cells; host or cells: Flp-In T-Rex 293 cells, doxycycline-induced
T2 sequence (O15552 1-330): T1 sequence (O15552 1-330)
The series is described as follows: cAMP assay, antagonist mode, Flp-In T-Rex 293 cells expressing hFFA2-eYFP. Type of series: cell-based. The note with it: for cAMP pIC50: hFFA2, antagonist mode, propionate at EC80, mean ± SEM, three or more experiments; for LLEcAMP: pIC50, cAMP – ClogP; for LLEcAMP-logD: pIC50, cAMP – logD7.4. The protocol:
as §1
The hFFA2-eYFP and hFFA3-eYFP Flp-In T-Rex 293 cell lines were maintained in Dulbecco’s modified Eagle mMedium (DMEM, ThermoFisher #11965092) supplemented with 10% (v/v) fetal bovine serum, 100 U/mL penicillin, 100 μg/mL streptomycin, 5 μg/mL blasticidin S, and 200 μg/mL hygromycin B and incubated at 37 °C and 5% CO2 in a humidified incubator. Cells were passaged at 70–80% confluency.
To determine the compound’s ability to activate or inhibit the Gi-coupled FFA2 or FFA3, intracellular cAMP concentrations were determined using Flp-In T-Rex293 cells induced to express hFFA2-eYFP or hFFA3-eYFP. Experiments were carried out using a homogeneous time-resolved FRET-based detection kit (CisBio, PerkinElmer #62AM9PEC) according to the manufacturer’s protocol. The day before the assay, 10,000 cells/well were plated in DMEM supplemented with penicillin/streptomycin (100 units/mL and […], respectively), 5 μg/mL blasticidin S, and 200 μg/mL hygromycin B in 96-well cell culture microplates (Greiner Bio-One) and induced to express hFFA2-eYFP or hFFA3-YFP with 100 ng/mL doxycycline.
In antagonist mode, the cells were pre-incubated for 20 min with antagonist test compounds in HBSS together with 50 μM IBMX at rt. Then, the cells were further incubated for 25 min at rt in HBSS with the agonist compound, sodium propionate at EC80 (51.4 μM for FFA2, 13.2 μM for FFA3), and 3 μM forskolin. Reactions were stopped, and the output was measured with an Envision plate reader using a time-resolved fluorescence protocol, measuring the light emission at 620 and 665 nm. All analyses were performed in triplicate and analyzed using GraphPad Prism (version 9).
For orientation: cAMP levels reflect the balance of adenylyl cyclase and phosphodiesterase activity.

Series [4] in a line: Chemical stability in PBS7.4. Type of series: physicochemical. How it is done: Duplicates of 1 mL of a 50 μM solution were prepared by adding the 10 mM stock solution to a 1.5 mL Eppendorf tube and diluting it with PBS7.4. The Eppendorf tubes were incubated at 37 °C with gentle shaking (650 rpm) using an Eppendorf Thermomixer. The samples were briefly vortexed, and 50 μL aliquots were withdrawn at the time points 0, 12, 48, etc.; added to 250 μL vials; and analyzed immediately by HPLC. The chemical stability in PBS7.4 was determined at every time point in percentage relative to the 0 h time point.

The nature of series [5]: Lipophilicity (logD7.4), octanol/PBS7.4 shake flask. The note with it: 1-octanol/PBS7.4, pH 7.4; mean of two independent experiments. In kind it is physicochemical. How it is done: The assay was performed in duplicates essentially as previously described.[58] A glass vial with a screw cap (8 mL) was charged with the test compound (40 μL, 10 mM in DMSO), PBS7.4 (0.01 M, 1980 μL), and 1-octanol (1980 μL). The vial was capped and sealed with a Parafilm and shaken at 700 rpm using an IKA KS 125 basic shaker for 24 h at 25 °C. The Parafilm was removed, and the sample was allowed to equilibrate for 1 h before analysis. One hundred microliters of the octanol phase was withdrawn and diluted 1:10 with MeOH (+0.1% TFA)/MilliQ water (4:1, v/v) and analyzed by HPLC. The interface was removed, and the PBS7.4 phase analyzed directly by HPLC. All analysis was performed in duplicates, and log D7.4 values were calculated from the peak areas (mAU·min) and adjusted for difference in injection volume and concentration-absorption effects from the solvents, using two calibration points per compound per solvent, and dilution of the octanol phase.

The mark [6] stands for this setting: remaining, PBS7.4 at 37 °C, 10 days.

`O=C(O)C[C@H](Cc1ccc(C(F)(F)F)cc1)NC(=O)Cc1cccc(Cl)c1` [Compound 3, reference compound]: in series [1], the solubility (commonly how much of the substance goes into solution per volume) at 24 h came to 166 µM (≈ 66.4 µg/mL). Further, in series [2], the “GTPγS pIC50” value was found to be 6.68 ± 0.05 and the LLEGTPγS is given as 2.47. In addition, in series [3], the “cAMP pIC50” value was 6.96 ± 0.07, the LLEcAMP is 2.75 and the LLEcAMP-logD is 5.57. The compound also showed a chemical stability in series [4] (setting [6]) of 90%. The logD (as a rule, lipophilicity at a set pH, counting ionised and neutral species) at 25 h in series [5] came out at 1.39 ± 0.01.

For `COc1cccc(CC(=O)N[C@@H](Cc2ccc(C(F)(F)F)cc2)Cc2nnn[nH]2)c1` [Compound 16l, (S)-N-(1-(1H-Tetrazol-5-yl)-3-(4-(trifluoromethyl)phenyl)propan-2-yl)-2-(3-methoxyphenyl)acetamide], in series [1], the concentration in solution (solubility at 24 h) was 176 µM (≈ 73.8 µg/mL). Moreover, in series [2], the “GTPγS pIC50” value is listed as 8.46 ± 0.05 and the LLEGTPγS is given as 5.98. Further, in series [2] (inhibition of propionate at FFA2), the IC50 was 3 to 4 nM and 4 nM. In series [3], the “cAMP pIC50” value turned out to be 8.35 ± 0.15; the LLEcAMP came to 5.87; the LLEcAMP-logD is 7.5 and 7.51. For the same compound, the IC50 in series [3] (inhibition of propionate at FFA2, read-out: IC50 in cAMP assay) was 3 to 4 nM and 4 nM. The compound further displayed a chemical stability in series [4] (setting [6]) of more than 95%. The compound further returned a chemical stability in series [4] (supplementary CSV) of more than 95%. In addition, the logD at 25 h in series [5] worked out at 0.84 ± 0.01.

The compound `O=C(Cc1cncc(Br)c1)N[C@@H](Cc1ccc(C(F)(F)F)cc1)Cc1nnn[nH]1` [Compound 16w, (S)-3-(2-((1-(1H-Tetrazol-5-yl)-3-(4-(trifluoromethyl)phenyl)propan-2-yl)amino)-2-oxoethyl)-5-bromopyridin-1-ium 2,2,2-trifluoroacetate] registered a solubility at 24 h in series [1] of 183 µM (≈ 85.9 µg/mL). In series [2], the “GTPγS pIC50” value stood at 8.21 ± 0.09 and the LLEGTPγS is 6.28. Moreover, in series [3], the “cAMP pIC50” value is recorded as 7.83 ± 0.14; the LLEcAMP is listed as 5.90; the LLEcAMP-logD is 7.1 and 7.12. In series [3] (supplementary CSV, read-out: hFFA2 cAMP (pIC50) (converted)), the IC50 was 10.2 nM. In addition, in series [3] (vs 16s, assay not specified), the increase in potency was found to be 9 fold. This compound also yielded a chemical stability in series [4] (setting [6]) of more than 95%. The compound also displayed a chemical stability in series [4] (supplementary CSV) of more than 95%. The logD at 25 h in series [5] turned out to be 0.71 ± 0.06.

Values taken from publication PMC10547238, “Discovery of Potent Tetrazole Free Fatty Acid Receptor 2 Antagonists” (Journal of Medicinal Chemistry, 2023).
